System: ZRK
Assay: NAD
Assay type: biochemical, Zygosaccharomyces rouxii
Settings: 2000 uM NADPH/NADH; enzyme 1 ug/ml; optimal buffer

Km [µM] | Structure (SMILES)
186 | CC(=O)c1cc(C(F)(F)F)cc(C(F)(F)F)c1 [Aprepitant K-INT, 1-(3,5-bis-trifluoromethyl-phenyl)-ethanone]
346 | COC(=O)CC(=O)Cc1cc(F)c(F)cc1F [Sitagliptin K-INT, 3-oxo-4-(2,4,5-trifluoro-phenyl)-butyric acid methyl ester]

— paper doi:10.1101/2021.07.05.449867v2 (biorxiv, 2021)
